Source: patent US9637724B2, “Selective binding of biological targets to solid phase ureides” (AGENCY FOR SCIENCE, TECHNOLOGY AND RESEARCH, priority 2012, dated 2017)

What was measured:
[1] = tested on: Bacteriophage M13; assay: Co-precipitation of bacteriophage M13 from phage cell culture supernatant with allantoin
Method: Phage cell culture supernatant was co-precipitated by addition of allantoin at a weight to volume ratio of 7%. pH was about 7.0. Conductivity was 20 mS. The virus was recovered by dissolving the allantoin in 50 mM Hepes, 150 mM NaCl, pH 7.0. Phage recovery was about 70%. Greater than 99% of proteins and small molecule contaminants were eliminated with the supernatant.
Example 1 was repeated at pH values of 5.0, 6.0, and 8.0% allantoin.
Example 1 was repeated at NaCl concentrations corresponding to conductivity values of 40, 60, 80, and 100 mS/cm. These salt concentrations correspond with about 400, 600, 800, and 1000 mM NaCl. […] Optimal co-precipitation occurred at 400 mM NaCl. This was interpreted to reflect suppression of mutual electrostatic repulsion among viral particles with the result of supporting higher packing density of the particles on the ureide surface.
Example 1 was repeated with 3%, 5%, and 10% allantoin. Co-precipitation efficiency, as judged by removal from supernatant, was directly correlated with allantoin concentration. Recovery increased from about 31% to 57% to 91% respectively.
Phage cell culture supernatant was precipitated with 7% allantoin at 400 mM NaCl, pH 6.0. The majority of proteins and small molecule contaminants were eliminated with the supernatant. Recovery was estimated to be in excess of 90%. […]

[2] = tested on: Attenuated Dengue virus; assay: Co-precipitation of attenuated Dengue virus with allantoin; conditions: 7% allantoin, 600 mM NaCl, pH 6.0
Method: Attenuated Dengue virus was combined with 7% allantoin at 600 mM NaCl, pH 6.0. The supernatant was removed. The virus was recovered by dissolving the allantoin in 50 mM Hepes, pH 7.0. Recovery was estimated by immunoassay to be 70-80%.

[3] = tested on: minute virus of mice; assay: Co-precipitation of minute virus of mice, infectivity testing of supernatant; conditions: 10% allantoin, physiological conditions, 10^10 particles per mL
Text: A viral culture containing 10^10 particles per mL of minute virus of mice was coprecipitated under physiological conditions by addition of allantoin in an amount of 10%. Infectivity testing of the supernatant documented removal of 99.9% of the virus.

[4] = tested on: murine leukemia virus; assay: Co-precipitation of murine leukemia virus, infectivity testing of supernatant; conditions: 10% allantoin, physiological conditions, 10^10 particles per mL
Text: A viral culture containing 10^10 particles per mL of murine leukemia virus was coprecipitated under physiological conditions by addition of allantoin in an amount of 10%. Infectivity testing of the supernatant documented removal of 99.9% of the virus.

[5] = tested on: endotoxin; assay: Endotoxin reduction from an ovalbumin solution; conditions: start about 50 EU/mL
Method: A sample of ovalbumin in 50 mM phosphate, 100 mM NaCl, pH 7.2, contaminated with about 50 EU/mL of endotoxin, was saturated with 3% allantoin, incubated for 15 minutes, following which the precipitate was removed by membrane filtration. Endotoxin content of the supernatant was reduced by more than 95%, to less than 2 EU per mL. The experiment was repeated with 10% allantoin.

[6] = tested on: endotoxin; assay: Antibody recovery and endotoxin reduction from an IgG-endotoxin mixture
Method: Endotoxin was added to 1 mg/mL human IgG in 5 mM HEPES 100 mM NaCl pH 7.0 to 22,000 EU/ml. 2% (w/v) allantoin were added to aliquots of this mixture and allowed to mix for 15 minutes at room temperature. The suspension was clarified by centrifugation. Protein and endotoxin concentrations were measured to calculate antibody recovery and endotoxin removal. 2% (w/v) allantoin reduced endotoxin twofold. Antibody recovery was unaffected by the amount of allantoin. In a subsequent series of experiments, the amount of allantoin was increased in increments, up to 10%. Antibody recovery diminished gradually to about 93% at 10% allantoin, while endotoxin removal efficiency increased to about 99%. These experiments illustrate that the use of excessive amounts of allantoin can result in a loss of some proteins. In such cases, the person of skill in the art can make an informed decision as to the most productive balance of endotoxin removal versus protein recovery, and adjust the availability of the solid phase ureide accordingly. Additional experiments with proteins ranging in size from about 12 kDa to 1 MDa indicated a definite trend whereby the loss of protein increases with increasing protein size.

[7] = tested on: endotoxin; assay: Comparison of allantoin and uric acid for removal of endotoxin from human IgG solution; conditions: 1, 2 and 4% (w/v), 13,000 EU/ml, 6.7 mg/mL human IgG, 15 minutes
Method: Endotoxin was added to a 6.7 mg/mL solution of human IgG in 5 mM Hepes, 100 mM NaCl, pH 7.0 to a final concentration of 13,000 EU/ml. 1, 2 and 4% (w/v) of either allantoin or uric acid was added to aliquots of this mixture and allowed to mix for 15 minutes at room temperature. As a control, equal amounts of potato starch were added to a separate series. Finally, the reaction mixtures were clarified by centrifugation. Protein and endotoxin concentrations were measured to calculate antibody recovery and endotoxin removal. There was no reduction in endotoxin with the addition of starch. Uric acid produced a 4-fold reduction at all concentrations. Allantoin reduced endotoxin from 5-10-fold across the experiments (low to high). Antibody recovery was greater than 90% throughout. Besides the poorer performance of uric acid, the fact that results were unchanged as a function of the amount of uric acid are puzzling, and highlight allantoin as being a preferable ureide to begin with.

[8] = Allantoin plus ethacridine treatment of IgG cell culture harvest, then TREN / T-butyl column; conditions: 1% allantoin with 0.01% ethacridine
Method: Cell-containing mammalian cell culture harvest containing a monoclonal IgG was treated by allantoin affinity with 1% allantoin in combination with 0.01% ethacridine. The sample, at a pH of about 7.2 and a conductivity of about 13.5 mS, these conditions corresponding with so-called physiological conditions, was passed over a column packed chromatography media including equal amounts of the metal affinity ligand TREN (BioWorks TREN hi-sub) and a hydrophobic ligands (Macroprep T-butyl). Antibody recovery following the previous steps was 99%. DNA was reduced by 3.5 logs, and virus was reduced by 4-5 logs. In addition, the treated sample was sparking clear, with a turbidity of about 2.0 NTU, indicating near-total removal of particulates.
The form or example 15 was followed except increasing the amount of allantoin over the course of a series of experiments, including 2%, 4%, and 8%. Antibody recovery decreased in a roughly linear fashion in inverse proportion to the amount of allantoin. Whereas recovery at 1% (example 15) was 99%, recovery at 8% was about 87%.
IgG processed as described in examples 15 and 16 was analyzed by size exclusion chromatography. […] Where aggregate content following example 15 was about 5%, it was reduced to about 1.3% at 8% allantoin. Aggregate content of membrane clarified cell harvest lacking allantoin was about 19%. […]

[9] = Cell culture harvest treated with allantoin and ethacridine, then iminodiacetic acid / TREN / butyl particle assembly; conditions: 1% allantoin, 0.025% ethacridine
Method: 1 L of cell culture harvest was treated by addition of 1% allantoin and 0.025% ethacridine and incubated stirring for 15 minutes, after which the cells and other particulates were removed by centrifugation. The supernatant was passed through an assembly containing equal proportions of styrene divinylbenzene particles substituted with iminodiacetic acid, agarose particles substituted with TREN, and acrylate particles substituted with butyl residues, with a combined volume of 50 mL, dimensions of 2.6×10 cm, and a flow rate of 25 mL/min. Initial aggregate content of greater than 12% was reduced to less than 0.1%. Excess ethacridine was removed. Host protein contamination was reduced 60%. DNA, as measured by qPCR was reduced by 6 logs. Antibody recovery was 99%.

[10] = tested on: purified DNA from salmon sperm; assay: Treatment of purified DNA with allantoin; conditions: antibody-containing protein preparations, previous examples
Method: A 1 mg/mL preparation of purified DNA from salmon sperm was treated with 5% allantoin. More than 95% of the DNA remained soluble in the supernatant. This highlights the utility of separating virus or endotoxin contaminants from DNA preparations, such as plasmid preparations, which is otherwise extremely difficult because all three bind strongly to electropositive surfaces such as anion exchangers. […] The apparent discrepancy appears to be resolved by allantoin having little or no inherent affinity for DNA, but a very high affinity for DNA associated with other molecule, especially including DNA-compaction proteins or other compound associations of DNA with chromosomal substructures particularly including nucleosomes and their prokaryotic analogues. This further highlights the point that applications to purification of polynucleotides will likely benefit in particular from being conducted at high salt concentrations and/or the presence of organic modulators that discourage nonspecific formation of polynucleotide complexes with contaminants.

[11] = tested on: murine leukemia virus; assay: Enhancement of virus inactivation at low pH, virus infectivity; conditions: pH 4 plus 10% allantoin
Method: A cell culture supernatant containing about 10^10 particles of murine leukemia virus per mL was split into 10 aliquots. Half of the aliquots were treated by reduction of pH to 4 for the purpose of inactivating the virus. The other half was treated by the same reduction or pH plus the addition of 10% allantoin. Aliquots representing treatment at 1, 5, 10, 15, and 60 minutes were evaluated for virus infectivity. At 1 minute, inactivation absent allantoin was 1.2 logs versus 2.4 logs with allantoin. At 5 minutes, inactivation absent allantoin was 3.2 logs versus 4.5 logs with allantoin. At 10 minutes, inactivation absent allantoin was 4.3 logs versus 5.4 logs with allantoin. At 15 minutes, inactivation absent allantoin was 5.1 logs versus 5.6 logs with allantoin. At 60 minutes, inactivation absent allantoin was 5.4 logs versus 5.6 logs with allantoin. Since the sensitivity of the infectivity assay is about 5.5 logs, it is likely that the allantoin inclusion increases the level of inactivation at all time points, in addition to accelerating inactivation. It will be apparent to the person of skill in the art that combination of allantoin with other virus inactivation methods will likely have a similar enhancing effect.

[12] = tested on: endotoxin; assay: Endotoxin removal during purification of a DNA plasmid from E. coli lysate; conditions: 10% allantoin, 15 minutes
Method: Powdered allantoin was added to a final concentration of 10% in a filtered E. coli lysate containing a DNA plasmid. The mixture was stirred for 15 minutes then the solid allantoin was removed by microfiltration. 96.7% of the endotoxin was removed with the allantoin. 80% of the DNA plasmid was recovered in the filtrate. […] From the results given in the previous Examples, it will be apparent to the person of ordinary skill, that in the case of plasmids produced in mammalian cells, allantoin treatment will offer the additional benefit of virus removal.

[13] = cited from earlier work

NC(=O)NC1NC(=O)NC1=O (stereo not drawn) [allantoin]
virus eliminated in the precipitate ([1]; 5% allantoin, pH about 7.0, about 15 mS): About 60% | proteins and small molecule contaminants eliminated with the supernatant ([1]; 7% allantoin, pH about 7.0, 20 mS): Greater than 99% | Host protein contamination reduced by [2]: 99.3% | removal of the virus (infectivity testing of supernatant) [3]: 99.9% | removal of the virus (infectivity testing of supernatant) [4]: 99.9% | Endotoxin content of the supernatant reduced by ([5]; 3% allantoin, 15 minutes): more than 95% | Endotoxin reduced by ([5]; 10% allantoin): more than 99.5% | endotoxin reduction ([6]; 2% (w/v) allantoin, 22,000 EU/ml, 1 mg/mL human IgG, 15 minutes): twofold | endotoxin removal efficiency ([6]; 10% allantoin): about 99% | reduction in endotoxin [7]: 5-10 fold | DNA reduced by [8]: 3.5 logs | virus reduced by [8]: 4-5 logs | DNA as measured by qPCR reduced by [9]: 6 logs | Host protein contamination reduced [9]: 60% | DNA levels reduced by [10]: 98 to 99% | virus inactivation ([11]; 1 minute): 2.4 logs | virus inactivation ([11]; 5 minutes): 4.5 logs | virus inactivation ([11]; 10 minutes): 5.4 logs | virus inactivation ([11]; 15 minutes): 5.6 logs | virus inactivation ([11]; 60 minutes): 5.6 logs | endotoxin removed with the allantoin [12]: 96.7% | saturation concentration ([13]; aqueous solutions): about 36 mM

O=c1[nH]c(=O)c2[nH]c(=O)[nH]c2[nH]1 [uric acid]
reduction in endotoxin [7]: 4 fold

O=C1CNC(=O)N1 [hydantoin]
solubility relative to allantoin ([13]; times more soluble than allantoin): roughly 10 times
